Legend:
[1] = biological target: Tyrosine-protein kinase Lck (Homo sapiens, UniProt P06239)
[2] = biological target: T1, Epidermal growth factor receptor (Homo sapiens, UniProt P00533)
[3] = biological target: T1, Epidermal growth factor receptor; remark: listed apart in the source
Description: Inhibition of EGFR in human A431 cells

Tyrosine-protein kinase Lck, sequence (P06239 whole entry): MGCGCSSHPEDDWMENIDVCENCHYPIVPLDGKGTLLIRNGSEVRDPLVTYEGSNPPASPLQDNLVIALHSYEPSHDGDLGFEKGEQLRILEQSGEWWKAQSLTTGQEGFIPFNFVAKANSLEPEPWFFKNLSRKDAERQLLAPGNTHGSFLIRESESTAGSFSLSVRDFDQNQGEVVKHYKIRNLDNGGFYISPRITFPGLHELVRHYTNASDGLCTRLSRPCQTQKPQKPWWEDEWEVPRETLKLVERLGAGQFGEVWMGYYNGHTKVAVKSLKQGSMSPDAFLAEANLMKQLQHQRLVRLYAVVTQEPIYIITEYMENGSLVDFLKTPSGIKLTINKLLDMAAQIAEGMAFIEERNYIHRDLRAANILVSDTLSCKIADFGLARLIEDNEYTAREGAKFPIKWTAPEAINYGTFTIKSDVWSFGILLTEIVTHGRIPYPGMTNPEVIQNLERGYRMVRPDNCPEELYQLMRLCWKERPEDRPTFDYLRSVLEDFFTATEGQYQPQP
T1 sequence (P00533 whole entry): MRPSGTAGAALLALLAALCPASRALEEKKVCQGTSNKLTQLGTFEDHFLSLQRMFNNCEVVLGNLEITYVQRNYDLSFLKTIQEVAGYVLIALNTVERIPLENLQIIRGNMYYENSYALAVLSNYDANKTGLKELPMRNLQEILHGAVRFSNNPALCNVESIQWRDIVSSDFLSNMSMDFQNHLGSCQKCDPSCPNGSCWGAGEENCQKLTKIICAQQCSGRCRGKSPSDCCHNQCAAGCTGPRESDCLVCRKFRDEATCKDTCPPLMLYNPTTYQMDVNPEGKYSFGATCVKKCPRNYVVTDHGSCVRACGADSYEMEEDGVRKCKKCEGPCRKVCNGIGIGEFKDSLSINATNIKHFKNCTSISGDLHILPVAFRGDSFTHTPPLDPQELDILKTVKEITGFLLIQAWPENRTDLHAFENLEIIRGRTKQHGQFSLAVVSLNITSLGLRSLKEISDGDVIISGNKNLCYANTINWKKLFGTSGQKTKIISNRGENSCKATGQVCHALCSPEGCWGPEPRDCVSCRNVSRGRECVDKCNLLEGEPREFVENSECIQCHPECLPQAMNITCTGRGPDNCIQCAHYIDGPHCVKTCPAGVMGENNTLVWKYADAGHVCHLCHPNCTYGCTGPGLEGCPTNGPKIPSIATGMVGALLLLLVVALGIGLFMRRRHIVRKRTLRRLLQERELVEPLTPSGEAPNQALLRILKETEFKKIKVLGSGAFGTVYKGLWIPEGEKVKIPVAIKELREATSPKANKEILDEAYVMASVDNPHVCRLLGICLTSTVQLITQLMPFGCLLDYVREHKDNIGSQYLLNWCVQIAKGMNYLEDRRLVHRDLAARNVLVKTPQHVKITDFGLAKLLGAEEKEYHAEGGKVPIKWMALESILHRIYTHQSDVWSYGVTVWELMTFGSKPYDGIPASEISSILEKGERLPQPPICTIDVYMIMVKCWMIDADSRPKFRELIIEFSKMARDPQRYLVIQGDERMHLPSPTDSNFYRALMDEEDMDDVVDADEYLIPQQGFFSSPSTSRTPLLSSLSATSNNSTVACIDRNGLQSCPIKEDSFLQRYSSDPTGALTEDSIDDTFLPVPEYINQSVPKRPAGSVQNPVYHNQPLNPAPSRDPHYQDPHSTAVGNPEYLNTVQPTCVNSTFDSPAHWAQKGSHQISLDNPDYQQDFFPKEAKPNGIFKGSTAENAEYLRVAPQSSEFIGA

SMILES | IC50 [1] [µM] | IC50 [3] [µM] | also measured
COc1cc(/C=C(\C#N)C(N)=O)cc(CSc2ccccc2)c1O | – | – | IC50 [2]: 0.5 µM
O=CN/C=C/c1cccc(O)c1 | – | – | IC50 [2]: > 61.3 µM
O=c1c(O)c(-c2ccc(O)c(O)c2)oc2cc(O)cc(O)c12 [QUERCETIN] | 132 | – | –
COc1cc(O)c2c(=O)cc(-c3ccc(O)cc3)oc2c1 [GENKWANIN] | 281 | – | –
N#C/C(=C/c1ccc(O)c(O)c1)C(=O)NC1CCCCC1 | – | 2 | –
O=c1cc(-c2ccc(OCc3ccccc3)cc2)oc2cccc(O)c12 | > 2320 | – | –
COC(=O)c1oc2cc(O)cc(O)c2c(=O)c1-c1ccc(O)cc1 | – | – | IC50 [2]: 6.09 µM
O=CN/C=C/c1ccc(O)c(O)c1O | – | – | IC50 [2]: 4.61 µM
CC(C)(C)c1cc(/C=C(\C#N)C(N)=O)cc(C(C)(C)C)c1O | – | – | IC50 [2]: 50 µM
N#CC(C#N)=C(C#N)c1cc(O)cc(O)c1 | – | 10 | –
Nc1ccc(-c2cc(=O)c3cc(O)ccc3o2)cc1 | 1 | – | –
COc1cc(O)c2c(=O)c(-c3ccc(O)cc3)coc2c1 [PRUNETIN] | – | 14.1 | –
N#C/C(=C\c1cc(O)ccc1O)C(=O)O | – | 20 | –
N#C/C(=C\c1ccc(O)c(O)c1)C(=O)NCCc1ccccc1 | – | 0.9 | –
COc1ccc(O)c(/C=C/NC=O)c1 | – | – | IC50 [2]: > 31.1 µM
O=C(O)c1oc2cc(O)cc(O)c2c(=O)c1-c1ccc(O)cc1 | – | – | IC50 [2]: 6.36 µM
O=CN/C=C/c1ccc(O)c(O)c1 | – | – | IC50 [2]: 5.58 µM
O=C(O)/C=C/c1ccc(O)c(O)c1 [CAFFEIC ACID] | – | 1000 | –
N#CC(C#N)=C(O)c1cc(O)c(O)c(O)c1 | – | 10 | –

SMILES | IC50 [1] [µM] | IC50 [3] [µM] | also measured
CSCc1cc(/C=C2\C(=O)Nc3ccccc32)cc(CSC)c1O | – | – | IC50 [2]: 0.4 µM
O=c1cc(-c2ccc(O)cc2)oc2cc(O)cc(O)c12 [APIGENIN] | 14.8 | 111 | –
O=c1cc(-c2ccccc2)oc2cc(O)cc(O)c12 [CHRYSIN] | 19.7 | – | –
Cc1oc2cc(O)cc(O)c2c(=O)c1-c1ccc(O)cc1 | – | – | IC50 [2]: 7.04 µM
CC(C)C[C@H](NC(=O)[C@H](CCCNC(=N)N)NC(=O)[C@@H](N)CCCNC(=N)N)C(=O)N[C@@H](CCC(=O)O)C(=O)N[C@@H](CCC(=O)O)C(=O)N[C@@H](CCC(=O)O)C(=O)N[C@@H](CCC(=O)O)C(=O)N[C@@H](CCC(=O)O)C(=O)N[C@@H](C)C(=O)N[C@@H](Cc1c(F)c(F)c(O)c(F)c1F)C(=O)NCC(=O)O (stereo in doubt; 187D) | – | – | Ki [2]: 20 µM
CC(C)C[C@H](NC(=O)[C@H](CCCNC(=N)N)NC(=O)[C@@H](N)CCCNC(=N)N)C(=O)N[C@@H](CCC(=O)O)C(=O)N[C@@H](CCC(=O)O)C(=O)N[C@@H](CCC(=O)O)C(=O)N[C@@H](CCC(=O)O)C(=O)N[C@@H](CCC(=O)O)C(=O)N[C@@H](C)C(=O)N[C@@H](Cc1c(F)c(F)c(O)c(F)c1F)C(=O)NCC(=O)O (stereo in doubt; 187L) | – | – | Ki [2]: 4 µM
O=C(O)c1cc(N(Cc2ccccc2O)Cc2cc(O)ccc2O)ccc1O [LAVENDUSTIN A] | – | 0.0105 | –
COc1cc(-c2oc3cc(O)cc(O)c3c(=O)c2O)cc(OC)c1O [SYRINGETIN] | 57.8 | – | –
O=c1c(-c2ccc(O)cc2)c(CSC2=NCCS2)oc2cc(O)cc(O)c12 | – | – | IC50 [2]: 12.5 µM
COc1cc(C(C#N)=C(C#N)C#N)cc(O)c1O | – | 6 | –
CCOC(=O)C(=O)Oc1ccc(-c2c(C(=O)OCC)oc3cc(O)cc(O)c3c2=O)cc1 | – | – | IC50 [2]: 1 µM
NC(=O)c1oc2cc(O)cc(O)c2c(=O)c1-c1ccc(O)cc1 | – | – | IC50 [2]: 31.9 µM
N#C/C(=C\c1ccc(O)cc1)C(=O)O [alpha-CYANO-4-HYDROXYCINNAMIC ACID] | – | 200 | –
C/C(=C\c1ccc(O)c(O)c1)[N+](=O)[O-] | – | 9 | –
CC(C)c1cc(/C=C2\C(=O)Nc3ccccc32)cc(C(C)C)c1O | – | – | IC50 [2]: 0.4 µM
O=c1c(-c2ccc(O)cc2)c(CNC2=NCCS2)oc2cc(O)cc(O)c12 | – | – | IC50 [2]: 52 µM
O=C(O)c1cc(N(Cc2cc(O)ccc2O)Cc2cc(O)ccc2O)ccc1O | – | 0.0252 | –
O=CN/C=C/c1cc(Br)ccc1O | – | – | IC50 [2]: > 24.8 µM
COc1cc(C(C#N)=C(C#N)C#N)cc(OC)c1O | – | 900 | –

SMILES | IC50 [1] [µM] | IC50 [3] [µM] | also measured
COc1cc(-c2cc(=O)c3ccccc3o2)cc(OC)c1O | 26.8 | – | –
O=P(O)(O)C(O)c1ccc2ccccc2c1 (centres undefined) | – | 200 | –
COc1cc(-c2cc(=O)c3ccc(O)c(O)c3o2)cc(OC)c1O | 121 | – | –
COc1cc(-c2cc(=O)c3ccc(O)cc3o2)cc(OC)c1OC | > 2440 | – | –
O=c1cc(-c2ccc(OCc3ccccc3)cc2)oc2cc(O)ccc12 | 2030 | – | –
Cc1ccc(C(=O)/C(C#N)=C/c2ccc(O)c(O)c2)cc1 | – | 0.9 | –
O=c1c(O)c(-c2cc(O)cc(O)c2)oc2cc(O)cc(O)c12 | 99.3 | – | –
N#CC(C#N)=C(N)/C(C#N)=C/c1ccc(O)cc1 | – | 0.1 | –
COc1cc(/C=C/[N+](=O)[O-])ccc1O | – | 8 | –
COc1cc(O)c2c(c1)C(=O)c1cc(C)cc(O)c1C2=O [PHYSCION] | > 2810 | – | –
O=c1cc(-c2ccccc2)oc2ccccc12 [FLAVONE] | – | 225 | –
O=c1cc(-c2ccccc2)oc2c(O)c(O)ccc12 [7,8-DIHYDROXYFLAVONE] | 315 | – | –
O=c1cc(-c2ccc(O)cc2)oc2ccc(O)cc12 | 11.8 | – | –
CC(=O)Oc1ccc2c(c1)C(=O)c1ccccc1C2=O | > 3000 | – | –
O=c1cc(-c2ccc(O)c(O)c2)oc2cc(O)cc(O)c12 [LUTEOLIN] | 34.9 | – | –
O=c1c(-c2ccc(O)cc2)coc2cc(O[C@@H]3O[C@H](CO)[C@@H](O)[C@H](O)[C@H]3O)cc(O)c12 [GENISTIN] | – | > 231 | –
O=[N+]([O-])/C=C/c1ccc(O)c(O)c1 | – | 9 | –
CC(C)(C)[Si](C)(C)Oc1ccc(-c2cc(=O)c3cc(O)ccc3o2)cc1 | 109 | – | –

Now from value to compound, other results behind:

IC50 [1] [µM] | IC50 [3] [µM] | SMILES | also measured
70 | – | COc1ccc(/C=N/Nc2ccccc2)cc1OC | –
– | 3 | N#CC(C#N)=C(N)/C(C#N)=C/c1ccc(O)c(O)c1 | –
> 2340 | – | COc1ccc2c(=O)cc(-c3cc(OC)c(OC)c(OC)c3)oc2c1 | –
– | 0.524 | O=C(O)c1ccc(O)c(N(Cc2ccccc2O)Cc2cc(O)ccc2O)c1 | –
> 1850 | – | Cc1cc(O)c2c(c1)C(=O)c1cc(O[C@@H]3O[C@H](CO)[C@@H](O)[C@H](O)[C@H]3O)cc(O)c1C2=O | –
– | 400 | N#CC(C#N)=C(C#N)c1cccc(O)c1 | –
> 2250 | – | COc1cc(-c2cc(=O)c3ccc(OC(C)=O)cc3o2)cc(OC)c1O | –
– | 1 | N#C/C(=C\c1ccc(O)c(O)c1)C(=O)c1ccccc1 | –
60.9 | – | COc1cc(-c2cc(=O)c3cc(O)ccc3o2)cc(OC)c1OC | –
– | 3 | N#CC(C#N)=C(C#N)c1cc(O)c(O)c(O)c1 | –
185 | – | O=c1cc(-c2cccc(O)c2)oc2c(O)c(O)ccc12 | –
89.2 | – | O=C1c2ccccc2C(=O)c2cc(O)ccc21 [2-HYDROXYANTHRAQUINONE] | –
> 1510 | – | COc1cc(-c2cc(=O)c3ccc(OC(C)=O)c(OC(C)=O)c3o2)cc(OC)c1O[Si](C)(C)C(C)(C)C | –
290 | – | COc1cc(-c2cc(=O)c3ccc(O)c(O)c3o2)cc(OC)c1OC | –
315 | – | O=c1cc(-c2cccc(O)c2)oc2cccc(O)c12 | –
– | 0.6 | N#C/C(=C\c1ccc(O)c(O)c1)C(=O)c1ccc(F)cc1 | –
> 2150 | – | COc1cc(-c2cc(=O)c3ccc(OC)c(OC)c3o2)cc(OC)c1OC | –
15.7 | – | O=c1cc(-c2ccc(O)cc2)oc2cccc(O)c12 | –
7 | – | Nc1ccc(-c2cc(=O)c3c(O)c(O)ccc3o2)cc1 | –
109 | – | CC(C)(C)[Si](C)(C)Oc1ccc(-c2cc(=O)c3ccc(O)cc3o2)cc1 | –
– | 141 | COc1ccc(-c2cc(=O)c3c(O)cc(O)cc3o2)cc1 [ACACETIN] | –
– | 500 | N#CC(C#N)=C(O)c1ccc(O)cc1 | –
– | 0.333 | COc1c(O)cc(O)c2c(=O)c(-c3ccc(O)cc3)coc12 [PSI-TECTORIGENIN] | –
467 | – | COc1cc(-c2cc(=O)c3cc(O)ccc3o2)cc(OC)c1O[Si](C)(C)C(C)(C)C | –
1270 | – | COc1cc(-c2cc(=O)c3ccc(O)cc3o2)cc(OC)c1O | –
– | 2 | N#C/C(=C\c1ccc(O)c(O)c1)C(=O)c1ccccc1Cl | –

IC50 [1] [µM] | IC50 [3] [µM] | SMILES | also measured
39.3 | – | O=c1cc(-c2cccc(O)c2)oc2cc(O)ccc12 | –
> 1700 | – | COc1cc(-c2cc(=O)c3ccc(OC(C)=O)cc3o2)cc(OC)c1O[Si](C)(C)C(C)(C)C | –
> 1800 | – | COc1cc(-c2cc(=O)c3ccc(O)c(O)c3o2)cc(OC)c1O[Si](C)(C)C(C)(C)C | –
> 3570 | – | O=C1c2ccccc2C(=O)c2c(O)cccc21 [1-HYDROXYANTHRAQUINONE] | –
– | 2 | N#C/C(=C\c1ccc(O)c(O)c1)C(=O)c1ccc([N+](=O)[O-])cc1 | –
– | > 393 | O=c1c(-c2ccc(O)cc2)coc2cc(O)ccc12 [DAIDZEIN] | –
100 | – | Nc1ccc(-c2cc(=O)c3ccc(O)cc3o2)cc1 | –
– | 10 | N#C/C(=C/c1ccc(O)c(O)c1)C(=O)Nc1ccccc1Cl | –
– | 0.4 | N#C/C(=C\c1ccc(O)c(O)c1)C(=O)c1ccc(O)c(O)c1 | –
– | 600 | N#CC(C#N)=C(C#N)c1ccc(C=O)cc1 | –
– | 72.4 | O=C(O)c1ccc(O)cc1 [PARABEN] | –
787 | – | O=c1cc(-c2ccc(O)cc2)oc2cc(O)ccc12 | –
– | 106 | COc1ccc(-c2coc3cc(O)cc(O)c3c2=O)cc1 [BIOCHANIN] | –
296 | – | O=c1c(O)c(-c2ccccc2)oc2cc(O)cc(O)c12 [GALANGIN] | –
200 | – | COc1ccc(/C=C/c2cccnc2)cc1OC | –
– | 600 | N#CC(C#N)=C(C#N)c1ccc(O)cc1 | –
– | 1.37 | O=C(O)c1cc(N(Cc2ccccc2O)Cc2ccccc2O)ccc1O [LAVENDUSTIN B] | –
– | 10.5 | O=c1c(O)c(-c2ccc(O)cc2)oc2cc(O)cc(O)c12 [KAEMPFEROL] | –
157 | – | O=c1cc(-c2cccc(O)c2)oc2ccc(O)cc12 | –
163 | – | COc1cc(-c2cc(=O)c3ccc(O)cc3o2)cc(OC)c1O[Si](C)(C)C(C)(C)C | –
336 | – | O=c1cc(-c2ccccc2)oc2cc(O)ccc12 [7-HYDROXYFLAVONE] | –
127 | – | COc1cc(-c2cc(=O)c3cc(O)ccc3o2)cc(OC)c1O | –
– | 30 | N#C/C(=C\c1ccc(O)c(O)c1)C(=O)O | –
– | 10 | N#CC(C#N)=C(C#N)c1ccc(O)c(O)c1 | –
> 2340 | – | COc1ccc2oc(-c3cc(OC)c(OC)c(OC)c3)cc(=O)c2c1 | –
– | 0.1 | N#C/C(=C/c1ccc(O)c(O)c1)C(=O)NCCCCc1ccccc1 | –

— ChEMBL document CHEMBL1150213, “Protein-tyrosine kinase inhibition: mechanism-based discovery of antitumor agents” (J Nat Prod, 1992)
